From patent US20040023884A1, “Biologically active peptides from functional domains of bactericidal/permeability-increasing protein and uses thereof” (priority 1993, published 2004)

Tests used:
[1] = tested on: rough mutant E. coli J5 bacteria; experiment: Radial diffusion bactericidal assay, E. coli J5; assay type: cell-based; details: radial diffusion; PROBIT analysis; E. coli J5 (rough)
Summary of the method: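 Log-phase bacteria (3 h at 37 °C in tryptic soy broth), washed in 10 mM sodium phosphate pH 7.4, were embedded at 4×10^6 CFU/mL in underlayer agarose. BPI proteolytic fragments (5 or 10 μL) went into 3 mm wells for 3 h at 37 °C, then agarose overlay and overnight 37 °C growth. Clear zones were measured by micrometer.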

Staphylococcus aureus = experiment: Radial diffusion bactericidal assay, Staphylococcus aureus; assay type: cell-based; details: radial diffusion; PROBIT analysis; S. aureus
[2] = 3H-heparin binding assay (affinity and capacity)
Summary of the method: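 Bound 3H-heparin was counted by liquid scintillation after 1 h incubation at 4 °C with fragments immobilised on PVDF-bottomed wells, then washing in blocking buffer. Signal was corrected for BSA-related background, and varying amounts of rBPI23 were used as positive control.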

[3] = tested on: endotoxin (e.g. E. coli 01:B4); experiment: Mouse experimental endotoxemia model; set-up: species or system mice; details: in vivo
Experimental: BPI functional domain peptides are tested for their efficacy in a mouse experimental endotoxemia model. Groups of at least 15 mice are administered an intravenous injection of endotoxin (e.g. E. coli 01:B4, Sigma Chemical Co., St. Louis, Mo.) at a LD90 dosage (e.g., 40 mg/kg). This is followed by a second intravenous injection of the test peptide in varying concentrations from about 0.1 mg/kg to about 100 mg/kg, preferably in the range of about 1 to 50 mg/kg. Injections of buffer without added peptide are used in negative control mice. The animals are observed for 7 days and mortality recorded. The efficacy of the peptides of this invention is measured by a decrease in endotoxemia-associated mortality in peptide-injected mice as compared with control mice.

[4] = tested on: E. coli 0111:B4 (smooth) bacteria; experiment: Radial diffusion bactericidal assay, E. coli 0111:B4; assay type: cell-based; details: radial diffusion; PROBIT analysis; E. coli O111:B4 (smooth)

Sequence: KWKAQFRFLKKSKVGWLILLFHKK [BPI.102]
- pmol added to well to achieve a 30 mm^2 bactericidal zone, E. coli J5 [1]: 13,814.12 pmol
- pmol added to well to achieve a 30 mm^2 bactericidal zone, S. aureus (Staphylococcus aureus): b (no detectable activity up to 5 μg/well)
- Heparin Capacity ([2]; heparin bound at saturation): 535.2 ng
- Kd ([2]; read-out: Heparin Affinity): 4.61 µM
- activity in the murine endotoxemia model (in words) [3]: active in this murine model
- pmol added to well to achieve a 30 mm^2 bactericidal zone, E. coli O111:B4 [4]: 697,655.78 pmol
